# Source: patent US9938261B2, “Heterocyclic compounds and methods of use thereof” (AMBIT BIOSCIENCES CORPORATION, priority 2011, dated 2018)
# pIC50, pKd: −log10 of the molar value. Like-named read-outs stand apart in the source and are kept apart here.
# Legend:
# FLT3 = target: T1, FLT3 (Homo sapiens, UniProt P36888); assay: Competition binding assay, FLT3 Kd
# T1 construct: made in house
# T1 sequence (P36888 27-993): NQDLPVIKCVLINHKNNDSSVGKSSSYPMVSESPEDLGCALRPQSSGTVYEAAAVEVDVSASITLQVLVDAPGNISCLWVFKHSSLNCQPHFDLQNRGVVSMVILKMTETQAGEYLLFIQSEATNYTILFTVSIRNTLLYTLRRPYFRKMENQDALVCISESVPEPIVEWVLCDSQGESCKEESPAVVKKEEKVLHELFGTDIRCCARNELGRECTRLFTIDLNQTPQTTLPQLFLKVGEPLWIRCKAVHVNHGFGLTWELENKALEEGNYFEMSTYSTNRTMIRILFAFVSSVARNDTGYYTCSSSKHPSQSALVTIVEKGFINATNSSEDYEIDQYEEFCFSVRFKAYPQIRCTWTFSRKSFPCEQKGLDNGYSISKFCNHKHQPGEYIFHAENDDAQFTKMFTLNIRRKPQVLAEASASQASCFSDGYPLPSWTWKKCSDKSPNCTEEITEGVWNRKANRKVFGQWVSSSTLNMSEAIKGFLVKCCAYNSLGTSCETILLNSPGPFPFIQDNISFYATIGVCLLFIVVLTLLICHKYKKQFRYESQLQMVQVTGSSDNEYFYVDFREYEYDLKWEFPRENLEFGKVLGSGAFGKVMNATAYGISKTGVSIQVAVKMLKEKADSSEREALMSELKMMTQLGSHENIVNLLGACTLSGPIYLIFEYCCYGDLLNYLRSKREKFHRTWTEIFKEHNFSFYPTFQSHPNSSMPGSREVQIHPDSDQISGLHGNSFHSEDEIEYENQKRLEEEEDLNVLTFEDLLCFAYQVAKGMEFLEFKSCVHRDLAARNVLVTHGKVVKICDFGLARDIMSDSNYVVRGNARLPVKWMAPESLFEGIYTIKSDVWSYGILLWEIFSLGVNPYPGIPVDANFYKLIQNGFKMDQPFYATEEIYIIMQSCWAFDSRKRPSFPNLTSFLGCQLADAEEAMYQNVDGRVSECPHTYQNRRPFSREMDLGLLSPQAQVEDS
# Method: (§1) Competition binding assays used herein were developed, validated and performed as described in Fabian et al., Nature Biotechnology 2005, 23, 329-336. Kinases were produced as fusions to T7 phage (See, Fabian et al. or WO04/015142) or alternatively, the kinases were expressed in HEK-293 cells and subsequently tagged with DNA for PCR detection (See, WO08/005310). For the binding assays, streptavidin-coated magnetic beads were treated with biotinylated affinity ligands for 30 min at room temperature to generate affinity resins. The liganded beads were blocked with excess biotin and washed with blocking buffer (SeaBlock (Pierce), 1% BSA, 0.05% Tween 20, 1 mM DTT) to remove unbound ligand and to reduce non-specific binding. Binding reactions were assembled by combining kinase, liganded affinity beads, and test compounds in 1× binding buffer (20% SeaBlock, 0.17×PBS, 0.05% Tween 20, 6 mM DTT). Test compounds were prepared as 100× stocks in DMSO and diluted into the aqueous environment. Kds were determined using an eleven point threefold serial dilutions. DMSO or control compounds were was added to control assays lacking a test compound. Primary screen assays were performed in polypropylene 384-well plates in a final volume of 20-40 μL, while Kd determinations were performed in polystyrene 96-well plates in a final volume of 135 μL. The assay plates were incubated at room temperature with shaking for 1 hour to allow the binding reactions to reach equilibrium, and the affinity beads were washed extensively with wash buffer (1×PBS, 0.05% Tween 20) to remove unbound protein. The beads were then resuspended in elution buffer (1×PBS, 0.05% Tween […] non-biotinylated affinity ligand) and incubated at room temperature with shaking for 30 min. The kinase concentration in the eluates was measured by quantitative PCR.
# KIT = target: T2, KIT (Homo sapiens, UniProt P10721); assay: Competition binding assay, KIT Kd
# T2 construct: made in house
# T2 sequence (P10721 26-976): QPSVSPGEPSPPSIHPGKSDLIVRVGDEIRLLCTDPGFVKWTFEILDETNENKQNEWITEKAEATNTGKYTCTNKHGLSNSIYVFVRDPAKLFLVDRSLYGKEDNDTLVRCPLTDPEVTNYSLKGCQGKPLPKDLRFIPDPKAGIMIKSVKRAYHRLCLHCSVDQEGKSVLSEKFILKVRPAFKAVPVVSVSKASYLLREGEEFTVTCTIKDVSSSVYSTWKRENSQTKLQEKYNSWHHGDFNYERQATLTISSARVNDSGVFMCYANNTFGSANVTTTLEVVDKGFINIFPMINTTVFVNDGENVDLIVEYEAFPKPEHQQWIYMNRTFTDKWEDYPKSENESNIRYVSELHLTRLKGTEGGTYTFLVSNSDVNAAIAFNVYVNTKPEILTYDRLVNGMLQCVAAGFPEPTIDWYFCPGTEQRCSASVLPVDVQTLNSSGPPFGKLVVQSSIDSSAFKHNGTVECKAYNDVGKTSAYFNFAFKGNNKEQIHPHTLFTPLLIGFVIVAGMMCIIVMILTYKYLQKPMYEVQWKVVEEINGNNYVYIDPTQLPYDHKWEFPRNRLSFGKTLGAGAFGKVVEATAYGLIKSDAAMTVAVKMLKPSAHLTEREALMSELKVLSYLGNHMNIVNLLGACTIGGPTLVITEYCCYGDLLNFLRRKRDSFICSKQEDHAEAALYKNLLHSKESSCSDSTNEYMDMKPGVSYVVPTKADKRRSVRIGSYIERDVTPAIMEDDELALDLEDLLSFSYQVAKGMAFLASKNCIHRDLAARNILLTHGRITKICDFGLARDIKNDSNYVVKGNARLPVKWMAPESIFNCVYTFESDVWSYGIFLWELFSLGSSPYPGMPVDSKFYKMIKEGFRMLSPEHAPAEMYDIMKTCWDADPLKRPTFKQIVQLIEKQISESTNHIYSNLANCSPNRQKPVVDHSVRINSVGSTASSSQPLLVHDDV
# Method: as §1
# PDGFRβ = target: T3, PDGFRβ (Homo sapiens, UniProt P09619); assay: Competition binding assay, PDGFRβ Kd
# T3 construct: made in house
# T3 sequence (P09619 33-1106): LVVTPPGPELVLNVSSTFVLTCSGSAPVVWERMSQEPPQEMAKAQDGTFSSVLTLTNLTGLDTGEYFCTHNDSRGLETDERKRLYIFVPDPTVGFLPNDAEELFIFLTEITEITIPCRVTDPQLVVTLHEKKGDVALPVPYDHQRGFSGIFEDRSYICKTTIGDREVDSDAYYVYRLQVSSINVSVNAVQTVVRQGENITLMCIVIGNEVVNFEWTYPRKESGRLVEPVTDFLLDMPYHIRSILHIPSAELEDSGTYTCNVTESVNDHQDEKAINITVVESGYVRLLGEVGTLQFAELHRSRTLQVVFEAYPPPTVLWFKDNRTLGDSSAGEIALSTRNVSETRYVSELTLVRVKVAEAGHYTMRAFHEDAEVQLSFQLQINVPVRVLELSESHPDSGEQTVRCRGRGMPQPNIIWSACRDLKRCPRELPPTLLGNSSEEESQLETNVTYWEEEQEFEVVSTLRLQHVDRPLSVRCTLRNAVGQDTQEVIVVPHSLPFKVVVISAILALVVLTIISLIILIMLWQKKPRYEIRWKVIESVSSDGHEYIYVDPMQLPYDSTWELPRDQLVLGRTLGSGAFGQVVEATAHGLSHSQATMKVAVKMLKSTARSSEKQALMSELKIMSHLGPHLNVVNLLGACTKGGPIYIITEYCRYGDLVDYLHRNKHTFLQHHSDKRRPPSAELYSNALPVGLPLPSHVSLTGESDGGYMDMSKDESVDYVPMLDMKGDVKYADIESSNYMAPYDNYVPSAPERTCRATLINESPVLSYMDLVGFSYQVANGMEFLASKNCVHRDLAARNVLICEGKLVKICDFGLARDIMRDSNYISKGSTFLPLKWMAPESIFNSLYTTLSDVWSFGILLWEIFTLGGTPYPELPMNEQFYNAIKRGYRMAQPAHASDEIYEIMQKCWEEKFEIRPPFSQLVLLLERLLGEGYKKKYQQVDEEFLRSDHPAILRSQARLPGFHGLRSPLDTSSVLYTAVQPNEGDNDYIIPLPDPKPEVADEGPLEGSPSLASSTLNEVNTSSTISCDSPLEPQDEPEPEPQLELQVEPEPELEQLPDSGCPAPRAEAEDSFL
# Method: as §1
# M-NFS-60 cells = assay: M-NFS-60 cell proliferation assay (Alamar Blue); type: cell-based, mouse; settings: Mus musculus, read-out: CSF1R M-NFS-60 CTB:IC50
# Method: The compounds disclosed herein were tested in an M-NFS-60 cell proliferation assay to determine their cellular potency against CSF1R. M-NFS-60s are mouse monocytic cells that depend on the binding of the ligand M-CSF to its receptor, CSF1R, to proliferate. Inhibition of CSF1R kinase activity will cause reduced growth and/or cell death. This assay assesses the potency of compounds as CSF1R inhibitors by measuring the reduction of Alamar Blue reagent by viable cells.
# On day one of the experiment, M-NFS-60 cells were maintained in RPMI complete medium (Omega Scientific) plus 10% FBS supplemented with 20 ng/mL of M-CSF (R&D Systems). 96-well TC-treated, flat bottom plates were seeded at 10,000 cell/well at a volume of 100 μL per well. The cells were cultured overnight at 37° C. under 5% CO2.
# On day two, compounds were added to the cells at 9 different concentrations, with half-log intervals alongside a control reference compound serving as a positive control. Final DMSO concentration was kept at 0.5% for a final volume of 200 μL. The compounds were allowed to incubate with the cells for 72 hours at 37° C. under 5% CO2.
# On day five of the experiment, 40 μl of Alamar Blue reagent was added to each well and allowed to incubate for 3 hours. Alamar Blue fluorescence was read using SoftMax Pro software at 560 nm (excitation) and 590 nm (emission). IC50s were generated as an average of duplicates and represents the concentration of test compound that achieves 50% inhibition of cellular proliferation compared to control.
# CSF1R [1] = target: T4, CSF1R (Homo sapiens, UniProt P07333); assay: Competition binding assay, CSF1R Kd; set-up: made in house
# T4 sequence (P07333 20-972): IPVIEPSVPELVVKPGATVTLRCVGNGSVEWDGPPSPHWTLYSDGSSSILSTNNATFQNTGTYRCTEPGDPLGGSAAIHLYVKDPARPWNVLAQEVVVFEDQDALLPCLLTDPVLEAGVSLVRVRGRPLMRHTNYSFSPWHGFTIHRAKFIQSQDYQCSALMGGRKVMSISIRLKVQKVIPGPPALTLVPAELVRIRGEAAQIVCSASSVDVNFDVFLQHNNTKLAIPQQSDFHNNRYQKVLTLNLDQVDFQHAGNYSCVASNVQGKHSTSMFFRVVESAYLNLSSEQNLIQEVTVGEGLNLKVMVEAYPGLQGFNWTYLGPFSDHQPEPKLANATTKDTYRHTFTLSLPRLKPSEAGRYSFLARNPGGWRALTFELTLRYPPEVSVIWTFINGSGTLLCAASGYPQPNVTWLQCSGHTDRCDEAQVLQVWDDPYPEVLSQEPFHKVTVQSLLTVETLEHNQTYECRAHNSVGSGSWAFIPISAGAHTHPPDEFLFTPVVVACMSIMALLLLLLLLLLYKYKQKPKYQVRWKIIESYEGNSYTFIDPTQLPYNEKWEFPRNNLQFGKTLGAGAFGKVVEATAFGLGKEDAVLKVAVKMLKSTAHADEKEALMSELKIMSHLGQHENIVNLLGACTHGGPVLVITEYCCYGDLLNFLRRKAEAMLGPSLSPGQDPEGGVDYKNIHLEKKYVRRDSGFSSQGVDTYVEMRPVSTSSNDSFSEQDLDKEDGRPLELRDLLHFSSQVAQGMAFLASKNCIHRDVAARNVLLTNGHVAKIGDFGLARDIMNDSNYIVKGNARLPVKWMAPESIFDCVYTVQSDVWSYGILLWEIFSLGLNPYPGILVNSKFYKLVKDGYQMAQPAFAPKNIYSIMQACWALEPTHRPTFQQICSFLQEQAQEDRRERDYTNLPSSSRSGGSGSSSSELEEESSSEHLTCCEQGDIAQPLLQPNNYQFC
# Method: as §1
# CSF1R [2] = target: T4, CSF1R; assay: HEK293 CSF1R phosphorylation MSD assay; type: cell-based; set-up: expressed in transfected cells; host or cells: HEK293; settings: read-out: HEK293 pCSF1R M-CSF MSD:IC50
# Method: The compounds disclosed herein were tested in a CSF1R phosphorylation assay to determine their cellular potency against CSF1R. A HEK293 cell line expressing CSF1R fused to FK506 binding protein (FKBP) as a molecular tag was generated. Inhibition of CSF1R kinase activity will prevent ligand-stimulated autophosphorylation of the CSF1R-FKBP in intact cells. Subsequent cell lysates are assayed in a sandwich ELISA employing the electrochemiluminescent Meso Scale Discovery (MSD) technology for the presence of the phosphorylated (p)CSF1R-FKBP. This assay determines the potency of compounds as CSF1R inhibitors by measuring the reduction in the amount of pCSF1R with increasing doses of compounds added to the cells prior to M-CSF stimulation.
# On day one of the experiment, HEK293-CSF1R-FKPB cells, maintained in DMEM, with L-glutamine (Mediatech), 10% FBS, and 100 units/mL Penicillin/Streptomycin, were seeded at 50,000 cell/well in a volume of 100 μL per well in 96-well Cell Bind plates (Costar). The cells were cultured overnight at 37° C. under 5% CO2. To prepare the plates used in the MSD assay, a 330 nM biotin-FK506 (in TBS pH 7.2) solution was added at 30 μL per well to streptavidin-coated 96-well plates (MSD), and incubated overnight at room temperature, shaking at 500 rpm on an orbital shaker.
# On day two, compounds diluted in DMSO were added to the cells in duplicate plates at 9 different concentrations with half-log intervals, plus DMSO only control, alongside a reference compound serving as a positive control. Final DMSO concentration was 0.5% in a volume of 200 μL per well. The compounds were allowed to incubate with the cells for 2 h at 37° C. under 5% CO2. At the end of the incubation, human M-CSF (R&D Systems) was added for 5 min to a final concentration of 50 ng/mL to stimulate CSF1R phosphorylation. Cells were lysed for 20 min, and the lysates were applied to the washed, FK506-coated MSD plates, and incubated overnight at 4° C. shaking at 500 rpm.
# On day three, the MSD plates were washed, and the captured CSF1R-FKBP was assayed sequentially for phosphorylation using mouse anti-phosphotyrosine antibody (Millipore) and Sulfo-TAG goat anti-mouse IgG antibody (MSD), and detected on a Sector Imager 6000 instrument (MSD).
# A single IC50 value for each compound was determined by averaging the IC50s of the duplicates calculated using Igor Pro 6 software, and represents the compound concentration that achieves a 50% inhibition of ligand-induced CSF1R phosphorylation compared to DMSO control.
# [3] = 72 hours incubation, M-CSF 20 ng/mL
# [4] = 2 h compound, human M-CSF 50 ng/mL for 5 min
SMILES,pKd (FLT3),pKd (KIT),pKd (PDGFRβ),pIC50 (M-NFS-60 cells; [3]),pKd (CSF1R [1]),pIC50 (CSF1R [2]; [4]),pKd (FLT3; competition binding),pKd (KIT; competition binding),pKd (PDGFRβ; competition binding),pIC50 (M-NFS-60 cells; M-NFS-60 cell proliferation),pKd (CSF1R [1]; competition binding),"pIC50 (CSF1R [2]; HEK293 cells, M-CSF stimulated CSF1R phosphorylation, MSD)"
"O[C@H]1CCCC[C@H]1Nc1nc2ccc(Cn3cnc4ccccc43)cc2s1 (racemic) [Example 1, 2-((6-((1H-benzo[d]imidazol-1-yl)methyl)benzo[d]thiazol-2-yl)amino)cyclohexanol]",5.30 to 6.00,6.30 to 7.00,6.30 to 7.30,6.40 to 7.30,7.70 to 8.30,6.70 to 7.30,,,,,,
"COc1cc2ncn(Cc3ccc4nc(NC5CCOC5)sc4c3)c2cc1OC (racemic) [Example 25, (R,S)-6-((5,6-dimethoxy-1H-benzo[d]imidazol-1-yl)methyl)-N-(tetrahydrofuran-3-yl)benzo[d]thiazol-2-amine acetic acid]",< 5.30,< 5.70,< 5.70,< 5.82,< 7.30,< 6.30,,,,,,
"COc1cc2ncn(Cc3ccc4nc(N[C@@H]5CCCCC5O)sc4c3)c2cc1OC (stereo in doubt) [Example 2, (1R,2R)-2-((6-((5,6-dimethoxy-1H-benzo[d]imidazol-1-yl)methyl)benzo[d]thiazol-2-yl)amino)cyclohexanol]",6.00 to 6.70,6.30 to 7.00,6.30 to 7.30,6.40 to 7.30,7.70 to 8.30,≥ 7.30,,,,,,
"O[C@H]1CCCCC1Nc1nc2ccc(Cn3cnc4ccccc43)cc2s1 (stereo in doubt) [Example 7, (1S,2S)-2-((6-((1H-benzo[d]imidazol-1-yl)methyl)benzo[d]thiazol-2-yl)amino)cyclohexanol]",6.00 to 6.70,6.30 to 7.00,≥ 7.30,5.82 to 6.40,7.70 to 8.30,6.70 to 7.30,,,,,,
"COc1cc2ncn(Cc3ccc4nc(N[C@@H]5CCCC5O)sc4c3)c2cc1OC (stereo in doubt) [Example 20, (1R,2R)-2-((6-((5,6-dimethoxy-1H-benzo[d]imidazol-1-yl)methyl)benzo[d]thiazol-2-yl)amino)cyclopentanol]",5.30 to 6.00,< 5.70,< 5.70,< 5.82,7.30 to 7.70,6.30 to 6.70,,,,,,
"O[C@H]1CCCCC1Nc1nc2ccc(Cn3cnc4cc(F)cnc43)cc2s1 (stereo in doubt) [Example 213, (1S,2S)-2-((6-((6-fluoro-3H-imidazo[4,5-b]pyridin-3-yl)methyl)benzo[d]thiazol-2-yl)amino)cyclohexanol]",,,,,,,6.00 to 6.70,≥ 7.00,≥ 7.30,6.40 to 7.30,≥ 8.30,6.70 to 7.30
"O[C@@H]1CCCC[C@H]1Nc1nc2ccc(Cn3cnc4ncccc43)cc2s1 [Example 5, (1R,2R)-2-((6-((1H-imidazo[4,5-b]pyridin-1-yl)methyl)benzo[d]thiazol-2-yl)amino)cyclohexanol]",< 5.30,< 5.70,< 5.70,< 5.82,< 7.30,< 6.30,,,,,,
"O[C@@H]1CCCC[C@H]1Nc1nc2ccc(Cn3cnc4ccccc43)cc2s1 [Example 6, (1R,2R)-2-((6-((1H-benzo[d]imidazol-1-yl)methyl)benzo[d]thiazol-2-yl)amino)cyclohexanol]",≥ 6.70,6.30 to 7.00,6.30 to 7.30,6.40 to 7.30,7.70 to 8.30,6.70 to 7.30,,,,,,
"COc1cc2ncn(Cc3ccc4nc(NC[C@H]5CCCO5)sc4c3)c2cc1OC [Example 8, (R)-6-((5,6-dimethoxy-1H-benzo[d]imidazol-1-yl)methyl)-N-((tetrahydrofuran-2-yl)methyl)benzo[d]thiazol-2-amine]",5.30 to 6.00,5.70 to 6.30,5.70 to 6.30,< 5.82,7.70 to 8.30,6.30 to 6.70,,,,,,
"COc1cc2ncn(Cc3ccc4nc(NCc5ccccn5)sc4c3)c2cc1OC [Example 9, 6-((5,6-dimethoxy-1H-benzo[d]imidazol-1-yl)methyl)-N-(pyridin-2-ylmethyl)benzo[d]thiazol-2-amine]",5.30 to 6.00,5.70 to 6.30,5.70 to 6.30,< 5.82,7.30 to 7.70,6.30 to 6.70,,,,,,
